# In ChEMBL document CHEMBL1150206, “Verrucoside, a new cytotoxic pregnane glycoside from a gorgonian Eunicella verrucosa” (J Nat Prod, 1991):
# How the values were obtained:
# Type in all cases: functional, cell-based
# HT-29 = test: Cytotoxicity against human HT-29 cells
# A549 = test: Cytotoxicity against human A549 cells
# P388 = test: Cytotoxicity against mouse P388 cells
structure (smiles),measurement,setting,value
C=C[C@H]1CC[C@H]2[C@@H]3CC[C@@H]4[C@@H](O[C@@H]5O[C@@H](C)[C@@H](O)[C@@H](OC)[C@@H]5OC(C)=O)[C@@H](O)CC[C@]4(C)[C@H]3CC[C@]12C [VERRUCOSIDE],IC50,HT-29,6.3 µg/mL
same,IC50,A549,7.2 µg/mL
same,IC50,P388,5.9 µg/mL
